Common to all, as to format: biochemical
One assay deals with T1, MMP-3 (Homo sapiens, UniProt P08254).
T1 construct: Truncated Prostromelysin-257 was expressed in a soluble form in E.coli; made in house; host or cells: E. coli
The assay can be described thus: Automated MMP Profiling Assay, MMP-3 fluorogenic. The conditions noted are these: for IC50: 96-well automated, P218. The text has this:
This assay with each invention compound was run with the three enzymes MMP-3, MMP-9 and MMP-2 in parallel as adapted for a 96-well microtitre plate using a Hamilton A® workstation.

The next assay has as its target T2, MMP-9 (Homo sapiens, UniProt P14780).
T2 construct: from tissue; host or cells: human polymorphonuclear leukocytes (PMN) from whole blood (New York Blood Center), PMA-stimulated supernatant
The assay can be described thus: Automated MMP Profiling Assay, MMP-9 fluorogenic. The conditions noted are these: for IC50: 96-well automated, P218.

The next assay addresses T3, MMP-2 (Homo sapiens, UniProt P08253).
T3 sequence (P08253 110-660): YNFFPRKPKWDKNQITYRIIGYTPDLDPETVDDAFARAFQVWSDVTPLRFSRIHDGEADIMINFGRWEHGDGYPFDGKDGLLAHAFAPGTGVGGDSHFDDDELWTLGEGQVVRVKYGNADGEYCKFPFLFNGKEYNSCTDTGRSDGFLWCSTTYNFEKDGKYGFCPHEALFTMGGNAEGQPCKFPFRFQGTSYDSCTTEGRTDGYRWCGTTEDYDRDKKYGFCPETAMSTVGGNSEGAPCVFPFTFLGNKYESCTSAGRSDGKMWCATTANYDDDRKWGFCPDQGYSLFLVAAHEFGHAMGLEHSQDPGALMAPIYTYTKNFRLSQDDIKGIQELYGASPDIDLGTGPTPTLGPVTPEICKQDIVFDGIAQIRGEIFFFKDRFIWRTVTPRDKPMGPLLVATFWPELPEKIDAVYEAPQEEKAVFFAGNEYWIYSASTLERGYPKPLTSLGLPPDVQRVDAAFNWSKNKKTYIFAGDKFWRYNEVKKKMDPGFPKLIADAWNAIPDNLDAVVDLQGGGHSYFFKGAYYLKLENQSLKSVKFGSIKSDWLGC
The assay can be described thus: Automated MMP Profiling Assay, MMP-2 fluorogenic.

Where [1] appears, read: 96-well automated, P218, read-out: MMP-2 Fluorogenic IC50 (profiling).

The values below come from US5789434A, “Derivatives of substituted 4-biarylbutyric acid as matrix metalloprotease inhibitors” (priority 1995, dated 1998).

Where two headings read alike, the source gives them in different places.

T1 sequence (P08254 100-274 limits assumed): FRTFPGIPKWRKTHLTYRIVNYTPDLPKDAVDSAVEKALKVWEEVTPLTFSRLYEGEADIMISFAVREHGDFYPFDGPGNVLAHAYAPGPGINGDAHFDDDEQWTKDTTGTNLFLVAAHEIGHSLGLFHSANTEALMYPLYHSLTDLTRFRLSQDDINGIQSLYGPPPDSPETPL
T2 sequence (P14780 107-707 limits assumed): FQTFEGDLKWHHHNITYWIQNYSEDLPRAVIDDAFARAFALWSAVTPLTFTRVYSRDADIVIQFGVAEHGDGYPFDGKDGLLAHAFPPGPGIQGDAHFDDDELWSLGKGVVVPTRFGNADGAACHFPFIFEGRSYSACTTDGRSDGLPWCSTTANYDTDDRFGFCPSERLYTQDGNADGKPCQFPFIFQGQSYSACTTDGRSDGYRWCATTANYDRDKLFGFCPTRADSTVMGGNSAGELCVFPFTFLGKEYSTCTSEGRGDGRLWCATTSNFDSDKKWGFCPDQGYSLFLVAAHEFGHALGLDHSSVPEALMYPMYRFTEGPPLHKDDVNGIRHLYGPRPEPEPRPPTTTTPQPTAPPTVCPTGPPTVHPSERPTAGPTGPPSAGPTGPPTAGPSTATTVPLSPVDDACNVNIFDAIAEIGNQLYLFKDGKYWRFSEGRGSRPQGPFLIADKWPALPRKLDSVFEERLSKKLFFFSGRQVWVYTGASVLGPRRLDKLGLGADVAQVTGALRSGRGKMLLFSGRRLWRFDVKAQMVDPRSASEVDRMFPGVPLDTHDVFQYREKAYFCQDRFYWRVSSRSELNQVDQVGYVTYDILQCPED

`O=C(CC(CCc1ccc(I)cc1)C(=O)O)c1ccc(-c2ccc(Cl)cc2)cc1` (stereo not drawn) [Example 128, [1,1'-Biphenyl]-4-butanoic acid, 4'-chloro-α-[2-(4-iodophenyl)ethyl]-γ-oxo-]: the IC50 – broadly, the concentration that gives 50% inhibition – came out at 0.561 µM at MMP-3, 0.715 µM at MMP-9 and 0.145 µM at MMP-2 (setting [1]).
As for `CC(=O)O[C@@H]1C[C@@H](C(=O)c2ccc(-c3ccc(Cl)cc3)cc2)[C@H]1C(=O)O` (relative stereo) [Example 394, Cyclobutanecarboxylic acid, 2-(acetyloxy)-4-[(4'-chloro[1,1'-biphenyl]-4-yl)carbonyl]-, (1α,2β,4α)-], the inhibition (as a rule, how much of the control response was suppressed) at 5 µM was 26% against MMP-3 and 15% on MMP-9. At MMP-2 (setting [1]), the IC50 was 2 µM.
As to `O=C(CC(CCCc1ccccc1)C(=O)O)c1ccc(-c2ccc(OCc3cccc(Cl)c3)cc2)cc1` (stereo not drawn) [Example 106, [1,1'-Biphenyl]-4-butanoic acid, 4'-[(3-chlorophenyl)methoxy]-γ-oxo-α-(3-phenylpropyl)-], the IC50 on MMP-3 was determined as 0.057 µM; against MMP-9, 0.622 µM; on MMP-2 (setting [1]), 0.043 µM.
The like results for `O=C(O)[C@H]1[C@H](CN2C(=O)c3cccc([N+](=O)[O-])c3C2=O)CC[C@@H]1C(=O)c1ccc(-c2ccc(Cl)cc2)cc1` (relative stereo) [Example 385, Cyclopentanecarboxylic acid, 2-[(4'-chloro[1,1'-biphenyl]-4-yl)carbonyl]-5-[(1,3-dihydro-4-nitro-1,3-dioxo-2H-isoindol-2-yl)methyl]-, (1α,2β,5β)-] were, in that order, 0.00422 µM, 0.00112 µM and 0.00426 µM.
The like results for `CCCCCOc1ccc(-c2ccc(C(=O)[C@H]3CC[C@@H](Cc4ccccc4)[C@@H]3C(=O)O)cc2)cc1` [Example 324, Cyclopentanecarboxylic acid, 2-[[4'-(pentyloxy)[1,1'-biphenyl]-4-yl]carbonyl]-5-(phenylmethyl)-, [1S-(1α,2β,5β)]-] were, in that order, 0.046 µM, 0.343 µM and 0.0081 µM.
With `CCCCCOc1ccc(-c2ccc(C(=O)[C@H]3CC[C@@H](Sc4ccccc4)[C@@H]3C(=O)O)cc2)cc1` (single isomer, unassigned) [Example 320, Cyclopentanecarboxylic acid, 2-[[4'-(pentyloxy)[1,1'-biphenyl]-4-yl]carbonyl]-5-(phenylthio)-, (1α,2β,5β)-(-)-], the values for the inhibition at 5 µM against MMP-3, against MMP-9 and on MMP-2 (at 5 μM) were 6%, 6% and 24%, respectively.
Regarding `O=C(CC(CCN1C(=O)CCC1=O)C(=O)O)c1ccc(-c2ccc(Cl)cc2)cc1` (stereo not drawn) [Example 411, 1-Pyrrolidinebutanoic acid, α-[2-(4'-chloro[1,1'-biphenyl]-4-yl)-2-oxoethyl]-2,5-dioxo-], the IC50 is 0.116 µM against MMP-3, 0.213 µM against MMP-9 and 0.027 µM at MMP-2 (setting [1]).
As to `O=C(CC(CCCc1ccccc1)C(=O)O)c1ccc(-c2ccc(OCC3CCCCC3)cc2)cc1` (stereo not drawn) [Example 93, [1,1'-Biphenyl]-4-butanoic acid, 4'-(cyclohexylmethoxy)-γ-oxo-α-(3-phenylpropyl)-], the IC50 on MMP-3 was 0.129 µM; against MMP-9, over 1.25 µM; at MMP-2 (setting [1]), 0.036 µM.
For `COCCCc1ccc(-c2ccc(C(=O)CC(CCCc3ccccc3)C(=O)O)cc2)cc1` (stereo not drawn) [Example 355, [1,1'-Biphenyl]-4-butanoic acid, 4'-(3-methoxypropyl)-γ-oxo-α-(3-phenylpropyl)-], in that order: 0.508 µM, 1.08 µM and 0.09 µM.
As to `O=C(CC(CCN1C(=O)c2cccc(O)c2C1=O)C(=O)O)c1ccc(-c2ccc(Cl)cc2)cc1` (stereo not drawn) [Example 421, 2H-Isoindole-2-butanoic acid, α-[2-(4'chloro[1,1'-biphenyl]-4-yl)-2-oxoethyl]-1,3-dihydro-4-hydroxy-1,3-dioxo-], the values for the IC50 against MMP-3, at MMP-9 and on MMP-2 (setting [1]) were 0.012 µM, 0.0017 µM and 0.00075 µM, respectively.
`O=C(O)[C@H]1[C@@H](Sc2ccccc2)CC[C@@H]1C(=O)c1ccc(-c2ccc(Cl)cc2)cc1` (relative stereo) [Example 313, Cyclopentanecarboxylic acid, 2-[(4'-chloro[1,1'-biphenyl]-4-yl)carbonyl]-5-(phenylthio)-, (1α,2β,5α)-]: the IC50 at MMP-3 came out at 3.33 µM; at MMP-2 (setting [1]), 2.78 µM. The inhibition at 5 µM against MMP-9 was found to be 20%.
As for `CC(=O)Nc1ccc(-c2ccc(C(=O)CC(CCc3ccccc3)C(=O)O)cc2)cc1` (stereo not drawn) [Example 139, [1,1'-Biphenyl]-4-butanoic acid, 4'-(acetylamino)-γ-oxo-α-(2-phenylethyl)-], the values for the IC50 at MMP-3, against MMP-9 and on MMP-2 (setting [1]) were 5 µM, 5 µM and 0.323 µM, respectively.
With `O=C(CC(CCCc1ccccc1)C(=O)O)c1ccc(-c2ccc(OCc3ccc(F)cc3)cc2)cc1` (stereo not drawn) [Example 107, [1,1'-Biphenyl]-4-butanoic acid, 4'-[(4-fluorophenyl)methoxy]-γ-oxo-α-(3-phenylpropyl)-], the IC50 at MMP-3 came to 0.032 µM; on MMP-2 (setting [1]), 0.016 µM. In addition, the inhibition at 5 µM against MMP-9 came to 34%.
For the molecule `CCOc1ccc(-c2ccc(C(=O)CC(CCN3C(=O)c4ccccc4C3=O)C(=O)O)cc2)cc1` (stereo not drawn) [Example 273, 2H-Isoindole-2-butanoic acid, α-[2-(4'-ethoxy[1,1'-biphenyl]-4-yl)-2-oxoethyl]-1,3-dihydro-1,3-dioxo-], the results for the IC50 on MMP-3, on MMP-9 and on MMP-2 (setting [1]) were 0.021 µM, 0.00125 µM and 0.00227 µM, respectively.
The like results for `CCCOc1ccc(-c2ccc(C(=O)CC(CCc3ccccc3)C(=O)O)cc2)cc1` (stereo not drawn) [Example 157, [1,1'-Biphenyl]-4-butanoic acid, γ-oxo-α-(2-phenylethyl)-4'-propoxy-] were, in that order, 0.111 µM, 0.142 µM and 0.035 µM.
Turning to `O=C(c1ccc(-c2ccc(Cl)cc2)cc1)[C@H]1CCN(C(=O)OCc2ccccc2)[C@@H]1C(=O)O` [Example 166, 1,2-Pyrrolidinedicarboxylic acid, 3-[(4'-chloro[1,1'-biphenyl]-4-yl)carbonyl]-, 1-(phenylmethyl) ester, (2S-trans)-], the IC50 at MMP-3 is 0.103 µM; against MMP-9, 0.381 µM; against MMP-2, 0.035 µM.
Take `O=C(c1ccc(-c2ccc(Cl)cc2)cc1)[C@H]1CCN(C(=O)Nc2ccccc2)[C@@H]1C(=O)O` [Example 173, L-Proline, 3-[(4'-chloro[1,1'-biphenyl]-4-yl)carbonyl]-1-[(phenylamino)carbonyl]-, trans-]: the IC50 against MMP-3 was 0.119 µM; on MMP-9, 0.814 µM; on MMP-2 (setting [1]), 0.104 µM.
Consider `O=C(CC(CCN1C(=O)c2ccc(O)cc2C1=O)C(=O)O)c1ccc(-c2ccc(Cl)cc2)cc1` (stereo not drawn) [Example 420, 2H-Isoindole-2-butanoic acid, α-[2-(4'chloro[1,1'-biphenyl]-4-yl)-2-oxoethyl]-1,3-dihydro-5-hydroxy-1,3-dioxo-], for which the figures for the IC50 at MMP-3, against MMP-9 and on MMP-2 (setting [1]) were 0.014 µM, 0.0017 µM and 0.0051 µM, respectively.
The like results for `COc1ccc(CSCCC(CC(=O)c2ccc(-c3ccc(Cl)cc3)cc2)C(=O)O)cc1` (stereo not drawn) [Example 427, [1,1'-Biphenyl]-4-butanoic acid, 4'-chloro-α-[2-[[(4-methoxyphenyl)methyl]thio]ethyl]-γ-oxo-] were, in that order, 0.189 µM, 0.362 µM and 0.042 µM.
Regarding `O=C(O)[C@H]1[C@H](CN2C(=O)c3ccc([N+](=O)[O-])cc3C2=O)CC[C@@H]1C(=O)c1ccc(-c2ccc(Cl)cc2)cc1` (relative stereo) [Example 386, Cyclopentanecarboxylic acid, 2-[(4'-chloro[1,1'-biphenyl]-4-yl)carbonyl]-5-[(1,3-dihydro-5-nitro-1,3-dioxo-2H-isoindol-2-yl)methyl]-, (1α,2β,5β)-], the IC50 against MMP-3 was found to be 0.00834 µM; against MMP-9 it was 0.00097 µM; on MMP-2 (setting [1]) it was 0.0117 µM.
In the case of `O=C(CC(CCN1C(=O)c2cc(Cl)c(Cl)cc2C1=O)C(=O)O)c1ccc(-c2ccc(Cl)cc2)cc1` (stereo not drawn) [Example 415, 2H-Isoindole-2-butanoic acid, 5,6-dichloro-α-[2-(4'-chloro[1,1'-biphenyl]-4-yl)-2-oxoethyl]-1,3-dihydro-1,3-dioxo-], the IC50 at MMP-3 stood at 0.012 µM; at MMP-9 it was 0.0012 µM; at MMP-2 (setting [1]), 0.034 µM.
For `CCCCNC(=O)c1ccc(CCC(CC(=O)c2ccc(-c3ccc(Cl)cc3)cc2)C(=O)O)cc1` (stereo not drawn) [Example 152, [1,1'-Biphenyl]-4-butanoic acid, α-[2-[4-[(butylamion)carbonyl]phenyl]ethyl]-4'-chloro-γ-oxo-], in that order: 0.367 µM, 0.597 µM and 0.21 µM.
The like results for `O=C(CC(CCN1C(=O)c2ccccc2C1=O)C(=O)O)c1ccc(-c2ccc(Cl)cc2)cc1` (racemic) [Example 267, 4-[4-(4-chlorophenyl)phenyl]-4-oxo-2-(2-phthalimidoethyl)butanoic acid] were, in that order, 0.015 µM, 0.003 µM and 0.0026 µM.
